Measured values: patent US10336755B2, “Fused pyrazole derivatives, preparation method thereof, and use thereof in treatment of cancers, inflammation and immune diseases” (Beijing InnoCare Pharma Tech Co., Ltd., priority 2016, dated 2019)

The molecules below were run against Bruton tyrosine kinase (BTK) (Homo sapiens (Human), UniProt Q06187) (assay: BTK Enzyme Activity Testing (in vitro kinase assay, ADP-Glo kinase assay kit)). Conditions: BTK kinase (full length with His-Tag), 50 uM ATP in substrate solution, 30 min pre-incubation, 60 min reaction, 10 concentration points.
Assay type: biochemical
Experimental: An in vitro kinase assay is used to evaluate the effect of the inventive compounds on Bruton tyrosine kinase (BTK) activity.
The experimental method is generally described as follows:
In vitro activity of BTK is measured by detecting ADP produced in a kinase reaction with an ADP-Glo™ kinase assay kit from Promega Company. In the kinase assay, the kinase consumes ATP to phosphorylate the substrate, while producing ADP. ADP-Glo reagent then terminates the kinase reaction and completely consumes the remaining ATP. Finally, a kinase detection reagent is added to convert generated ADP into new ATP. Luciferase in the detection reagent is capable of catalyzing fluorescein with the participation of ATP and O2 to produce oxidized fluorescein, AMP, and generate light quantum, thereby converting a chemical signal into an optical signal (Luminecence). The intensity of optical signal is positively correlated with the production of ADP in the kinase reaction, so that the activity of kinase BTK can be thereby quantitatively determined.
All assays are conducted at a constant temperature of 23° C., using a Corning 3674 Type white 384-well plate; the BTK kinase (full length with His-Tag) is expressed and purified internally by the company; the substrate of kinase is polypeptide (4:1 Glu,Tyr) (from SignalChem) and ATP (from Sigma); and a microplate reader EnVision (Perkin Elmer) is used for reading an optical signal. The assay buffer includes 40 mM Tris-HCl (pH 7.5), 10 mM MgCl2 (Sigma), 2 mM MnCl2 (Sigma), 0.05 mM DTT (Sigma), and 0.01% BSA (Sigma); the BTK kinase is diluted with the assay buffer to a concentration of 1.6 ng/uL as a kinase reaction solution; and the substrate reaction solution comprises 0.2 mg/mL polypeptide substrate and 50 uM ATP.
Compound's IC50 is calculated from 10 concentration points by the following method. The compound is dissolved and diluted in 100% DMSO to a concentration of 1 mM, followed by a serial 3× dilution with DMSO to a minimum concentration of 0.05 uM. Each concentration stock is further diluted 40× with the assay buffer. To a 384-well assay plate are added 1 uL of a series of compound solutions and 2 uL of the kinase reaction solution, followed by mixing homogeneously, and incubating in the dark at room temperature. After in the dark for 30 min, 2 uL of the substrate reaction solution is added to allowed the total reaction volume to 5 uL. The reaction mixture is incubated in the dark at room temperature in the dark for another 60 min. An equal volume of 5 uL ADP-Glo™ reagent is then added to terminate the reaction. The resulting mixture is homogeneously mixed, and stands at room temperature for 40 min. Finally, 10 uL of the kinase detection reagent is added, stands at room temperature for 30 min, and then a value is read on Envision.
Percent inhibition is calculated based on the following equation: Inhibition %=[1−(RLUcompound−RLUmin)/(RLUmax−RLUmin)]×100 wherein RLUcompound is the luminescence reading at a given concentration of compound, RLUmin is the luminescence reading in the absence of kinase, and RLUmax is the luminescence reading in the absence of compound. IC50 of the compound is calculated by using a XLfit program in Excel.

Sequence of Bruton tyrosine kinase (BTK) (Q06187 whole entry): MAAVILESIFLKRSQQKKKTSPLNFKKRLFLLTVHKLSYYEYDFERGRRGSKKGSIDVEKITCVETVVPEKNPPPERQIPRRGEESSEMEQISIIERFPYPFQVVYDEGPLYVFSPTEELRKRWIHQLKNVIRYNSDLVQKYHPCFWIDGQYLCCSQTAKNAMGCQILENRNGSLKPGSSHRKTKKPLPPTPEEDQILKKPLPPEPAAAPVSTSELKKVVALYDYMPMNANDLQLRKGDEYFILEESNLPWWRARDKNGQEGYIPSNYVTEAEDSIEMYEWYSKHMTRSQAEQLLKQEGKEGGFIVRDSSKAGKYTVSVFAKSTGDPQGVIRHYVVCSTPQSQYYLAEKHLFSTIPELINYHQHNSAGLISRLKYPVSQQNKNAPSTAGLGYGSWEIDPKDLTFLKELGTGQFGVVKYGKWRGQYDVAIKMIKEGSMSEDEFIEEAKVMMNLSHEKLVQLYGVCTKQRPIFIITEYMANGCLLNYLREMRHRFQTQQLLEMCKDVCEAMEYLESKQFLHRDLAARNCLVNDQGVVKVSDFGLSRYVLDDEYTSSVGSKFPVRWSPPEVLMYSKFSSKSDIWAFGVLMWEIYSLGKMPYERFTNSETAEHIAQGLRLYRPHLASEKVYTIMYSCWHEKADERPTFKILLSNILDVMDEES

IC50 [nM]	SMILES
100 to 500	C=CC(=O)N1CCCC(c2cc3cn[nH]c3c(-c3ccc(CN4CCOCC4)cc3)n2)C1 (centres unmarked) [Compound 1, 1-(3-(7-(4-(morpholinomethyl)phenyl)-1H-pyrazolo[3,4-c]pyridin-5-yl)piperidin-1-yl)prop-2-en-1-one]
100 to 500	C=CC(=O)N1CCCC(c2cc3cn[nH]c3c(-c3ccc(OC4COC4)cc3)n2)C1 (centres unmarked) [Compound 2, 1-(3-(7-(4-(oxetan-3-oxy)phenyl)-1H-pyrazolo[3,4-c]pyridin-5-yl)piperidin-1-yl)prop-2-en-1-one]
< 100	C=CC(=O)N1CCCC(c2cc3cn[nH]c3c(-c3ccc(Oc4ccccc4)cc3)n2)C1 (centres unmarked) [Compound 3, 1-(3-(7-(4-phenoxyphenyl)-1H-pyrazolo[3,4-c]pyridin-5-yl)piperidin-1-yl)prop-2-en-1-one]
< 100	CN(C)C/C=C/C(=O)N1CCCC(c2cc3cn[nH]c3c(-c3ccc(Oc4ccccc4)cc3)n2)C1 (centres unmarked) [Compound 4, (E)-4-(dimethylamino)-1-(3-(7-(4-phenoxyphenyl)-1H-pyrazolo[3,4-c]pyridin-5-yl)piperidin-1-yl)but-2-en-1-one]
< 100	C=CS(=O)(=O)N1CCCC(c2cc3cn[nH]c3c(-c3ccc(Oc4ccccc4)cc3)n2)C1 (centres unmarked) [Compound 5, 7-(4-phenoxyphenyl)-5-(1-(ethenylsulfonyl)piperidin-3-yl)-1H-pyrazolo[3,4-c]pyridine]
< 100	C=CC(=O)N1CCC(c2cc3cn[nH]c3c(-c3ccc(Oc4ccccc4)cc3)n2)C1 (centres unmarked) [Compound 6, 1-(3-(7-(4-phenoxyphenyl)-1H-pyrazolo[3,4-c]pyridin-5-yl)pyrrolidin-1-yl)prop-2-en-1-one]
< 100	C=CC(=O)N1CCC(c2cc3cn[nH]c3c(-c3ccc(Oc4ccccc4)cc3)n2)CC1 [Compound 7, 1-(4-(7-(4-phenoxyphenyl)-1H-pyrazolo[3,4-c]pyridin-5-yl)piperidin-1-yl)prop-2-en-1-one]
< 100	C=CC(=O)Nc1cccc(-c2cc3cn[nH]c3c(-c3ccc(Oc4ccccc4)cc3)n2)c1 [Compound 8, N-(3-(7-(4-phenoxyphenyl)-1H-pyrazolo[3,4-c]pyridin-5-yl)phenyl)acrylamide]
< 100	C=CC(=O)N1CCN(c2cc3cn[nH]c3c(-c3ccc(Oc4ccccc4)cc3)n2)CC1 [Compound 9, 1-(4-(7-(4-phenoxyphenyl)-1H-pyrazolo[3,4-c]pyridin-5-yl)piperazin-1-yl)prop-2-en-1-one]
< 100	C=CC(=O)NC1CCN(c2cc3cn[nH]c3c(-c3ccc(Oc4ccccc4)cc3)n2)C1 (centres unmarked) [Compound 10, N-(1-(7-(4-phenoxyphenyl)-1H-pyrazolo[3,4-c]pyridin-5-yl)pyrrolidin-3-yl)acrylamide]
< 100	C=CC(=O)N1CCC(Nc2cc3cn[nH]c3c(-c3ccc(Oc4ccccc4)cc3)n2)C1 (centres unmarked) [Compound 11, 1-(3-((7-(4-phenoxyphenyl)-1H-pyrazolo[3,4-c]pyridin-5-yl)amino)pyrrolidin-1-yl)prop-2-en-1-one]
< 100	C=CC(=O)N1CCC(c2cc3cn[nH]c3c(-c3ccc(OC4CCCC4)cc3)n2)CC1 [Compound 12]
< 100	C=CC(=O)N1CCC(c2cc3cn[nH]c3c(-c3ccc(Oc4ccccn4)cc3)n2)CC1 [Compound 13, 1-(4-(7-(4-(pyridin-2-oxy)phenyl)-1H-pyrazolo[3,4-c]pyridin-5-yl)piperidin-1-yl)prop-2-en-1-one]
< 100	C=CC(=O)N1CCC(c2cc3cn[nH]c3c(-c3ccc(Oc4ccccc4)cc3F)n2)CC1 [Compound 14, 1-(4-(7-(2-fluoro-4-phenoxyphenyl)-1H-pyrazolo[3,4-c]pyridin-5-yl)piperidin-1-yl)prop-2-en-1-one]
< 100	C=CC(=O)N1CCC(c2cc3cn[nH]c3c(-c3ccc(Oc4cccc(F)c4)cc3)n2)CC1 [Compound 15, 1-(4-(7-(4-(3-fluorophenoxyl)phenyl)-1H-pyrazolo[3,4-c]pyridin-5-yl)piperidin-1-yl)prop-2-en-1-one]
> 500	C=CC(=O)N1CCC(c2cc3cn[nH]c3c(-c3ccc(CN4CCCC4)cc3)n2)CC1 [Compound 16, 1-(4-(7-(4-(pyrrolidin-1-ylmethyl)phenyl)-1H-pyrazolo[3,4-c]pyridin-5-yl)piperidin-1-yl)prop-2-en-1-one]
100 to 500	CC#CC(=O)N1CCCC(c2cc3cn[nH]c3c(-c3ccc(Oc4ccccc4)cc3)n2)C1 (centres unmarked) [Compound 17, 1-(3-(7-(4-phenoxyphenyl)-1H-pyrazolo[3,4-c]pyridin-5-yl)piperidin-1-yl)but-2-yn-1-one]
< 100	C=CC(=O)N1CCC(c2cc3cn[nH]c3c(-c3ccc(C(=O)Nc4ccccn4)cc3)n2)C1 (centres unmarked) [Compound 18, 4-(5-(1-acryloylpyrrolidin-3-yl)-1H-pyrazolo[3,4-c]pyridin-7-yl)-N-(pyridin-2-yl) benzamide]
100 to 500	CC#CC(=O)N1CCC(c2cc3cn[nH]c3c(-c3ccc(C(=O)Nc4ccccn4)cc3)n2)C1 (centres unmarked) [Compound 19, 4-(5-(1-(but-2-ynoyl)pyrrolidin-3-yl)-1H-pyrazolo[3,4-c]pyridin-7-yl)-N-(pyridin-2-yl)benzamide]
< 100	C=CC(=O)N1CCCC(c2cc(-c3ccc(Oc4ccccc4)cc3)c3[nH]ncc3c2)C1 (centres unmarked) [Compound 20, 1-(3-(7-(4-phenoxyphenyl)-1H-indazol-5-yl)piperidin-1-yl)prop-2-en-1-one]
< 100	C=CC(=O)N1CCCC1c1cc2cn[nH]c2c(-c2ccc(Oc3ccccc3)cc2)n1 (centres unmarked) [Compound 21, 1-(2-(7-(4-phenoxyphenyl)-1H-pyrazolo[3,4-c]pyridin-5-yl)pyrrolidin-1-yl)prop-2-en-1-one]
< 100	C=CC(=O)N1CC[C@H](c2cc3cn[nH]c3c(-c3ccc(Oc4ccccc4)cc3)n2)C1 [Compound 22a, (S)-1-(3-(7-(4-phenoxyphenyl)-1H-pyrazolo[3,4-c]pyridin-5-yl)pyrrolidin-1-yl)prop-2-en-1-one]
< 100	C=CC(=O)N1CC[C@@H](c2cc3cn[nH]c3c(-c3ccc(Oc4ccccc4)cc3)n2)C1 [Compound 22b, (R)-1-(3-(7-(4-phenoxyphenyl)-1H-pyrazolo[3,4-c]pyridin-5-yl)pyrrolidin-1-yl)prop-2-en-1-one]
